What is called Kd is the concentration at which binding is half-saturated. Lower therefore signals a tighter complex.

Results on one compound are retold here after article PMC7493682, “Caffeine Targets SIRT3 to Enhance SOD2 Activity in Mitochondria” (Frontiers in Cell and Developmental Biology, 2020).

This assay addresses T1, SIRT3 (Homo sapiens, UniProt Q9NTG7).
T1 sequence (Q9NTG7 102-399): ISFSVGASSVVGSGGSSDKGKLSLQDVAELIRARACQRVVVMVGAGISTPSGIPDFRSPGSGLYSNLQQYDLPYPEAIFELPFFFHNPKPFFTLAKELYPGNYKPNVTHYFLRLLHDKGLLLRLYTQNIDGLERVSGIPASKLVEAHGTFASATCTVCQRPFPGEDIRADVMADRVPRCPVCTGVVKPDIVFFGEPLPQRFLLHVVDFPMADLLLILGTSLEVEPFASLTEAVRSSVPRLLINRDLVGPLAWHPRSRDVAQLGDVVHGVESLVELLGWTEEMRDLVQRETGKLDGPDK
In words: SPR (Biacore S200, immobilized SIRT3); also BLI (KD […]) and activation of the pure enzyme. The format is binding.

Turning to `Cn1c(=O)c2c(ncn2C)n(C)c1=O` [Caffeine, 1,3,7-trimethylxanthine], binding was put at a Kd of 686 nM.
